These results are taken from patent publication US20060079453A1, “Hla binding peptides and their uses” (priority 2002, published 2006).

No end group written: not given here.

Common to all, as to assay: biochemical
What all share (type): binding

The target in experiment [1] is HLA-DR DRB1*0101 (DR1) (Homo sapiens, UniProt P01903+P01911, A100R/D57E/F55L/F60I/F76Y/I96L/L162R/M171V/P40L/Q125E/R42F/V115G/Y59C). To be noted: DRB1 *0101.
The target in experiment [2] is HLA-DR DRB1*0701 (DR7) (Homo sapiens, UniProt P01903+P01911, A100R/A102G/A103Q/D57E/D86V/E43K/F76Y/K127E/L162R/M171V/P40G/Q125H/Q99D/R33Q/R42Y/R54Q/S133A/S66F/T210M/V115G/Y107V/Y59L/Y89S). Particulars: DRB1 *0701.
In experiment [3] the target is HLA-DR DRB1*0802 (DR8) (Homo sapiens, UniProt P01903+P01911, A100R/A103L/A169T/F76Y/H45Y/I96F/K41T/L162R/M171V/P40S/Q125H/Q178H/Q39Y/Q99D/R218S/R42G/S66Y/V115G/W38E).
Experiment [4] deals with HLA-DR DRB1*0901 (DR9) (Homo sapiens, UniProt P01903+P01911, A100R/A103E/D57H/D86V/F55Y/F60I/F76Y/I96F/K127E/L162R/M171V/P40D/Q125H/Q99R/R33Q/R42F/S133A/S66N/T210M/V115G/W38K/Y107V/Y59G/Y89S). To be noted: DRB1 *0901.
Experiment [5] concerns the target HLA-DR DRB1*1501 (DR15) (Homo sapiens, UniProt P01903+P01911). Particulars: DRBI *1501.
The target in experiment [6] is HLA-DR DRB1*1101 (DR11) (Homo sapiens, UniProt P01903+P01911, A100R/A169T/A87E/I96F/K41T/L162R/M171V/P40S/Q125H/Q178H/Q39Y/Q99D/R42S/S66Y/T262R/V115G/W38E). To be noted: DRB1 *1101.
In experiment [7] the target is HLA-DR DRB4*0101 (DR53) (Homo sapiens, UniProt P01903+P13762, G164S). Particulars: DRB4 *0101.
Experiment [8] deals with HLA-DR DRB1*0301 (DR3) (Homo sapiens, UniProt P01903+P01911, A100K/A102G/A103R/A169T/F55Y/I96L/K41T/L162R/M171V/P40S/Q125H/Q178H/Q39Y/R42S/S66N/T106N/T262R/W38E/Y61H).
Experiment [9] concerns the target HLA-DR DRB3*0101 (DR52) (Homo sapiens, UniProt P01903+P79483).
Experiment [10] has as its target HLA-DR DRB5*0101 (DR51) (Homo sapiens, UniProt P01903+Q30154). Particulars: DRB5 *0101.
The target of experiment [11] is HLA-DR DRB1*1302 (DR13) (Homo sapiens, UniProt P01903+P01911, A100E/A169T/K41T/L162R/M171V/P40S/Q125H/Q178H/Q39Y/Q99D/R42S/S66N/T262R/V115G/W38E/Y61H). To be noted: DRBI *1302.
HLA-DR DRB1*1302 (DR13), sequence (P01903 26-254 limits assumed, other chains not shown): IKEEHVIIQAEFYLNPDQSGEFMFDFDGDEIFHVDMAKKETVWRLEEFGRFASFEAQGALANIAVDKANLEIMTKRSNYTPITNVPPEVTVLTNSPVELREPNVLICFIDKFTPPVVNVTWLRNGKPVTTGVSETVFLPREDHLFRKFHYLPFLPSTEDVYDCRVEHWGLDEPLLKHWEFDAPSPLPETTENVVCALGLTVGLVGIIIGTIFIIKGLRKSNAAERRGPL

HLA-DR DRB1*1101 (DR11), sequence (P01903 26-254 limits assumed, other chains not shown): as above
HLA-DR DRB1*0301 (DR3), sequence (P01903 26-254 limits assumed, other chains not shown): as above

The term IC50 denotes the concentration needed to halve the response being measured. With YDPLYCESVHNFTLP, the IC50 in experiment [1] came out at 1600 nM; in experiment [2], 838 nM; in experiment [3] it was 30900 nM; in experiment [4] it was 643 nM; in experiment [5] it was 2140 nM; in experiment [6], 30200 nM. In addition, the IC50 in experiment [7] was 6900 nM; in experiment [8], 16600 nM; in experiment [9] it was greater than 8830 nM; in experiment [10], 28800 nM; in [11] it was greater than 35000 nM.

Consider NSRLLQERGVAYINA, for which the IC50 was found to be 614 nM in experiment [1]; 8000 nM in experiment [2]; 3220 nM in experiment [3]; 2620 nM in experiment [4]; 1230 nM in experiment [5]; 12800 nM in experiment [6]. For the same compound, the IC50 in experiment [7] is 699 nM; in experiment [8] it was 318 nM; in experiment [9], 3370 nM; in [10], 3470 nM; in [11] it was 327 nM.

EVFFQRLGIASGRAR: the IC50 amounted to 28 nM in experiment [1]; 5310 nM in [2]; 6.3 nM in [3]; 2980 nM in experiment [4]; 4560 nM in [5]; 31 nM in experiment [6]. Also, the IC50 in experiment [7] is 51 nM; in [8], greater than 75000 nM; in experiment [9], greater than 15000 nM; in [10] it was 7.9 nM; in [11], 17500 nM.

With `CC(C)C[C@H](NC(=O)[C@H](CO)NC(=O)[C@H](CC(C)C)NC(=O)[C@H](CO)NC(=O)[C@H](C)NC(=O)[C@H](C)NC(=O)[C@H](CCCNC(=N)N)NC(=O)[C@H](C)NC(=O)[C@H](CC(C)C)NC(=O)[C@H](CC(C)C)NC(=O)[C@H](CC(C)C)NC(=O)[C@@H]1CCCN1C(=O)[C@H](C)NC(=O)[C@H](C)N)C(=O)NCC(=O)O`, the half-maximal inhibitory concentration (IC50) came out at 6.8 nM in experiment [1]; 160 nM in experiment [2]; 30 nM in experiment [3]; 64 nM in experiment [4]; 35 nM in experiment [5]; 100 nM in experiment [6]. Besides, the IC50 is 79 nM in experiment [7]; 35400 nM in experiment [8]; 10500 nM in experiment [9]; 79 nM in experiment [10]; 3.2 nM in [11].

As for `CSCC[C@H](NC(=O)[C@H](CC(C)C)NC(=O)[C@@H]1CCCN1C(=O)[C@@H](NC(=O)[C@@H](N)CS)[C@@H](C)O)C(=O)N[C@@H](Cc1ccc(O)cc1)C(=O)N[C@@H](CO)C(=O)N[C@@H](CC(C)C)C(=O)N[C@H](C(=O)N[C@@H](Cc1c[nH]cn1)C(=O)N[C@@H](CC(N)=O)C(=O)N[C@@H](CC(C)C)C(=O)N[C@H](C(=O)N[C@@H](CCCCN)C(=O)N[C@@H](CCC(=O)O)C(=O)O)[C@@H](C)O)C(C)C`, the IC50 in experiment [1] is 93 nM; in experiment [2], 140 nM; in experiment [3], 223 nM; in experiment [4], 249 nM; in [5], 426 nM; in experiment [6], 590 nM. The IC50 came out at 58 nM in [7]; 19400 nM in experiment [8]; 18300 nM in [9]; 36 nM in experiment [10]; 260 nM in experiment [11].

Regarding `CC(C)C[C@H](NC(=O)[C@H](CO)NC(=O)[C@H](CC(C)C)NC(=O)[C@H](CO)NC(=O)[C@H](C)NC(=O)[C@H](C)NC(=O)[C@H](CCCNC(=N)N)NC(=O)[C@H](C)NC(=O)[C@H](CC(C)C)NC(=O)[C@H](CC(C)C)NC(=O)[C@H](CC(C)C)NC(=O)[C@@H]1CCCN1C(=O)[C@H](C)N)C(=O)NCC(=O)N[C@@H](Cc1ccccc1)C(=O)O`, the IC50 in [1] worked out at 8.4 nM; in experiment [2], 59 nM; in [3] it was 76 nM; in [4] it was 124 nM; in [5] it was 91 nM; in experiment [6], 322 nM. The IC50 in [7] stood at 59 nM; in [8] it was 56300 nM; in experiment [9], 13400 nM; in experiment [11] it was 12 nM.
